According to ChEMBL document CHEMBL1128907, “Platelet glycoprotein IIbIIIa receptor (GPIIbIIIa) antagonists derived from amidinoindoles” (Bioorg Med Chem Lett, 1996):
Square brackets hold non-standard residues; d marks the D form. Peptide text beside a SMILES is read from it. Pen = CC(C)(S)[C@H](N)C(=O)O; Mpa = O=C(O)CCS

Assays:
Homo sapiens = species on record: Homo sapiens; experiment: Functional inhibition of the GPIIb-IIIa receptor was reflected as its ability to antagonize ADP induced platelet aggregation in human platelet-rich plasma; assay type: organism-based
[1] = target: Integrin alpha-IIb/beta-3 (Homo sapiens, UniProt P05106+P08514); experiment: Inhibition of platelet glycoprotein alpha IIb beta-3 integrin in ELISA
Chain of Integrin alpha-IIb/beta-3 (P05106 27-788 limits assumed): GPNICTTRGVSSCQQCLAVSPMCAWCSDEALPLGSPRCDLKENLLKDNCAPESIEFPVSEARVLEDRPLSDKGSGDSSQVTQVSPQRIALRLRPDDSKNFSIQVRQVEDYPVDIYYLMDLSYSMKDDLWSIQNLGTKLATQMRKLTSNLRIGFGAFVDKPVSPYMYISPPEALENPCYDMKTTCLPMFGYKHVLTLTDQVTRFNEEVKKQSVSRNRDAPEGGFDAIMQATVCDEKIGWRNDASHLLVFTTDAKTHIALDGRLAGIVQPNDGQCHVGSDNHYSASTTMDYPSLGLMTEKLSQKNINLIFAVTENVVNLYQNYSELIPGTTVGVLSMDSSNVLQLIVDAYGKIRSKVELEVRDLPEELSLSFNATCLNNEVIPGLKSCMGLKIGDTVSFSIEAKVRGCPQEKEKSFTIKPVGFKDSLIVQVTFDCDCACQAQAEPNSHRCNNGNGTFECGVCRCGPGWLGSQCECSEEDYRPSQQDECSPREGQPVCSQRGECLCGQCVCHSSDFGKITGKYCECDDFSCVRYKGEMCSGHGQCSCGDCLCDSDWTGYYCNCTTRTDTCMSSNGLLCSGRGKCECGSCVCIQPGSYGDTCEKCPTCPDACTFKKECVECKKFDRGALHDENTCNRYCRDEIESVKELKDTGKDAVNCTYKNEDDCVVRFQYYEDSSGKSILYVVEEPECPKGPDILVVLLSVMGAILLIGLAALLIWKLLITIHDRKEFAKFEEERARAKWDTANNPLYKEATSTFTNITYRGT
Chain of Integrin alpha-IIb/beta-3 (P08514 32-887 limits assumed): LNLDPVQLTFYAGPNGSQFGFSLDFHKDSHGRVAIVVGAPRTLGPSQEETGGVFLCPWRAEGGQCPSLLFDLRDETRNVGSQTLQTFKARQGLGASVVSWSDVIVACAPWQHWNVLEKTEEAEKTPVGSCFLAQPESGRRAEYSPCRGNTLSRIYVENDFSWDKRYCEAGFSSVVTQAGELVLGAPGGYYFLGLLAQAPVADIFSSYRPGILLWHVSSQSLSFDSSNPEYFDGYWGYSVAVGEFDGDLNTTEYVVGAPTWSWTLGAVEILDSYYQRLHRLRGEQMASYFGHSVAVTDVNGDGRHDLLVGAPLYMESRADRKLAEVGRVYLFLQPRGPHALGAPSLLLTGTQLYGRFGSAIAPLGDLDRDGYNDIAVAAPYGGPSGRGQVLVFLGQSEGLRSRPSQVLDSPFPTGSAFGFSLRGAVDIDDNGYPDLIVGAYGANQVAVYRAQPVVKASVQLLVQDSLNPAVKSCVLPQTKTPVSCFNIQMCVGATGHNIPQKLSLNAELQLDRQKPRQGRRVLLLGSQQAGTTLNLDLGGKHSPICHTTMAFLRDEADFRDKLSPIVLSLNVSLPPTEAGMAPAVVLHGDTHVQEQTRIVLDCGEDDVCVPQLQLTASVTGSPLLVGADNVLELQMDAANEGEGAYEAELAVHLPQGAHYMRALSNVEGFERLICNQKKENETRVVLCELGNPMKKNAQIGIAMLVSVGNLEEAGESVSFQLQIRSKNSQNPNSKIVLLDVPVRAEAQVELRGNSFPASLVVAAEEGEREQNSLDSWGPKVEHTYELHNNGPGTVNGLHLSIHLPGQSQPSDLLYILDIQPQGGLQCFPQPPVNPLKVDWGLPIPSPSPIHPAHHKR
Chain of Integrin alpha-IIb/beta-3 (P08514 891-1039 limits assumed): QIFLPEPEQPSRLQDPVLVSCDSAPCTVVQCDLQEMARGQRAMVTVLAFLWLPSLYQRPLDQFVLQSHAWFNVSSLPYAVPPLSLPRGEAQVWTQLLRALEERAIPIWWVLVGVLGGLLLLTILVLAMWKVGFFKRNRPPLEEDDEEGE

| Structure (SMILES) | IC50 (Homo sapiens) | IC50 [1] |
| --- | --- | --- |
| N=C(N)c1ccc2[nH]c(C(=O)NCCCCCC(=O)O)cc2c1 | > 100 µM | 30 µM |
| N=C(N)c1ccc2c(C(=O)NCCCCCCC(=O)O)c[nH]c2c1 | 0.65 µM | 0.1 µM |
| N=C(N)c1ccc(NCC(=O)NCCCCCCC(=O)O)cc1 | 67 µM |  |
| N=C(N)c1ccc2[nH]c(C(=O)NCCCCCCCC(=O)O)cc2c1 | > 100 µM |  |
| N=C(N)c1cccc(NCC(=O)NCCCCCCC(=O)O)c1 | > 100 µM | 64 µM |
| N=C(N)c1ccc2cc(C(=O)NCCCCCCC(=O)O)[nH]c2c1 | 1.3 µM | 0.15 µM |
| N=C(N)c1ccc2[nH]cc(C(=O)NCCCCCCC(=O)O)c2c1 | > 100 µM | > 100 µM |
| N=C(N)c1ccc2[nH]cc(C(=O)NCCCCCCCC(=O)O)c2c1 | > 100 µM | > 100 µM |
| CC(C)(S)[C@H](NC(=O)[C@H](CCCN=C(N)N)NC(=O)[C@H](Cc1c[nH]c2ccccc12)NC(=O)[C@H](CC(=O)O)NC(=O)CNC(=O)[C@H](CCCN=C(N)N)NC(=O)CCS)C(N)=O ([Mpa]RGDWR[Pen]-NH2) | 0.28 µM | 0.12 µM |
| N=C(N)c1ccc2[nH]c(C(=O)NCCCCCCC(=O)O)cc2c1 | 2.7 µM |  |
